For one assay, the target named is BRAF V600E (Homo sapiens (Human), UniProt P15056, V600E). The experiment in a line: Kd affinity for BRAF V600E kinase. Type of assay: binding.
For assay [1], the system named is P-ERK in HCT116 cells expressing WT BRAF. Kind of assay: HTRF assay for P-ERK determination in HCT116 cells (paradoxical BRAF activation). Type of assay: cell-based. The following applies: HCT-116 cells; for EC50: read-out: p-ERK EC50 (nM) conc. (nM) at which the compound induces P-ERK activation of 50% of that induced by dabrafenib (Positive control paradox inducer) HCT-116, 1 hour drug incubation, not applicable if activation does not reach 50% of dabrafenib maximum; for Percentage of Maximum paradox inducing effect from dabrafenib: maximum P-ERK signal as percentage of highest dabrafenib signal within dose range tested. The method, then: (§1) A375 is a cellular cancer model expressing V600E mutated BRAF and HCT116 a cellular cancer model expressing WT BRAF. […] ERK 1,2 phosphorylation (terminal member of the phosphorylation cascade of the MAPK pathway) is hereafter reported as main readout for the activation status of the MAPK pathway. Prior to the assay, A375 and HCT116 cell lines are maintained in DMEM no-phenol red medium supplemented with 10% fetal bovine serum (FBS). […] Briefly, 8000 cells/well in 12 μl media/well are plated in the 384-well plate and left overnight in the incubator (at 37° C. with 5% CO2-humidified atmosphere), the following day the plate is treated in duplicate with test compounds, dabrafenib and PLX8394 (the latter two as controls) at the following final drug concentrations: 10 μM-3 μM-1 μM-0.3 μM-0.1 μM-0.03 μM-0.01 μM-0.003 μM-0.001 μM, all wells are subjected to DMSO normalization and drug incubation occurs for 1 hour. Then, 4 μl of a 4× lysis buffer supplied with the kit are added to the wells, the plate is then centrifuged for 30 second (300 rcf) and incubated on a plate shaker for 1 h at RT.
(§2) At the end of the incubation 4 μL/well of advanced P-ERK antibody solution (prepared according to manufacturer's instruction) followed by 4 μL/well of criptate P-ERK antibody solution (prepared according to manufacturer's instruction) (Cisbio cat #64AERPEH) are added to test wells.
(§3) In order to allow proper data normalization control wells without drug treatment reported are always included in each plate (according to manufacturer's instruction):
(§4) The plate is then centrifuged at 300 rcf for 30 second, sealed to prevent evaporation and incubated overnight in the dark at room temperature.
The plate is then analyzed and fluorescence emission value collected through a Pherastast FSX (BMG Labtech) apparatus at […].
(§5) The obtained fluorescence values are processed according to the formula Ratio=[…]*10000 then the average of the ratio on the blank is subtracted to all values.
Individual points are fitted with either sigmoidal or bell shape curves, and the percentage of activation compared to maximum dabrafenib-mediated activation is determined. The EC50 is the concentration at which activation equal to 50% of the maximum achieved by dabrafenib is obtained.
The Percentage of Maximum paradox inducing effect from dabrafenib is determined by evaluating the percentage at which the test compound induce its maximum P-ERK signal as percentage of the highest signal produced by dabrafenib within the dose range tested.
On the technique in general: Time-resolved FRET reads energy transfer from a long-lived donor to a nearby acceptor.

In another assay the target is BRAF (Homo sapiens (Human), UniProt P15056). The experiment in a line: Kd affinity for BRAF kinase. It is filed as binding.
Sequence of BRAF (P15056 whole entry): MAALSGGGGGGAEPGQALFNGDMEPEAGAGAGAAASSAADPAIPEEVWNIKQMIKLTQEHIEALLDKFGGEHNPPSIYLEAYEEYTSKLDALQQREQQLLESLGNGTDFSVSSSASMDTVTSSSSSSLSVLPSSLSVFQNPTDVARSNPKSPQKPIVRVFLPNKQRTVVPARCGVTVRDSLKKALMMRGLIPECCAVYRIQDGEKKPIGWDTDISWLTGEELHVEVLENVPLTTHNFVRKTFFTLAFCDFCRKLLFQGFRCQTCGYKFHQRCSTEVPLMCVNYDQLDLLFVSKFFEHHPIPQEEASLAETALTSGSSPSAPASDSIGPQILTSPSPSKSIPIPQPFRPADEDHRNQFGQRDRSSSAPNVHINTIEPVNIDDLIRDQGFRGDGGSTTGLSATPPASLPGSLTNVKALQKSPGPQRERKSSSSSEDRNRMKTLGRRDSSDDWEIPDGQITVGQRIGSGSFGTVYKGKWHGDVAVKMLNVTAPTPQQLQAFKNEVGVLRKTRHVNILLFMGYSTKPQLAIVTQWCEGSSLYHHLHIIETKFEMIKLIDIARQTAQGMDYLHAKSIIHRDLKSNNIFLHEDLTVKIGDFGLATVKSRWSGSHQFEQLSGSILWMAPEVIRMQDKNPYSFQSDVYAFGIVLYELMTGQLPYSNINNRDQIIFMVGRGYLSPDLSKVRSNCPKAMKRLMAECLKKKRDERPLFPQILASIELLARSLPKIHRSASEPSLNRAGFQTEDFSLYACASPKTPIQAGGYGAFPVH
The target in a further assay is CRAF (Homo sapiens (Human), UniProt P04049). Kind of assay: Kd affinity for CRAF kinase. Type of assay: binding.
Sequence of CRAF (P04049 whole entry): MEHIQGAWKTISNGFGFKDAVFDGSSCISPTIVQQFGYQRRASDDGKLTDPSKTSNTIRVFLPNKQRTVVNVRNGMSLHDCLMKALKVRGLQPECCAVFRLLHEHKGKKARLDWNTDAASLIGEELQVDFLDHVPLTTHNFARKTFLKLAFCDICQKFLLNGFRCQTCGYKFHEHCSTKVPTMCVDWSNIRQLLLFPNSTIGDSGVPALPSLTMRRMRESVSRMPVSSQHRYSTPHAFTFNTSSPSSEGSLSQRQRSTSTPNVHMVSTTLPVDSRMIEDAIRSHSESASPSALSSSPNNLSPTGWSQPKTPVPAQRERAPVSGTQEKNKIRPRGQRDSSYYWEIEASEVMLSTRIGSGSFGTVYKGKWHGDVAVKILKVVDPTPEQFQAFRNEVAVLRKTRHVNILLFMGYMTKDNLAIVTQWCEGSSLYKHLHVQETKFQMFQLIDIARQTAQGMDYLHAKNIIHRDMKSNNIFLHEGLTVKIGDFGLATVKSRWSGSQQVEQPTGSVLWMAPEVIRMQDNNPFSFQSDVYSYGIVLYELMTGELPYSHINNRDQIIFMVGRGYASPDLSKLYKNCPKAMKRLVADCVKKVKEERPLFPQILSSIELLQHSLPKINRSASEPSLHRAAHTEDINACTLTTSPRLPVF
In assay [2] the target is lymphocyte-specific tyrosine protein kinase (LCK) (Homo sapiens (Human), UniProt P06239). Kind of assay: Kd affinity for lymphocyte-specific tyrosine protein kinase (selectivity). Type of assay: binding.
Sequence of lymphocyte-specific tyrosine protein kinase (LCK) (P06239 whole entry): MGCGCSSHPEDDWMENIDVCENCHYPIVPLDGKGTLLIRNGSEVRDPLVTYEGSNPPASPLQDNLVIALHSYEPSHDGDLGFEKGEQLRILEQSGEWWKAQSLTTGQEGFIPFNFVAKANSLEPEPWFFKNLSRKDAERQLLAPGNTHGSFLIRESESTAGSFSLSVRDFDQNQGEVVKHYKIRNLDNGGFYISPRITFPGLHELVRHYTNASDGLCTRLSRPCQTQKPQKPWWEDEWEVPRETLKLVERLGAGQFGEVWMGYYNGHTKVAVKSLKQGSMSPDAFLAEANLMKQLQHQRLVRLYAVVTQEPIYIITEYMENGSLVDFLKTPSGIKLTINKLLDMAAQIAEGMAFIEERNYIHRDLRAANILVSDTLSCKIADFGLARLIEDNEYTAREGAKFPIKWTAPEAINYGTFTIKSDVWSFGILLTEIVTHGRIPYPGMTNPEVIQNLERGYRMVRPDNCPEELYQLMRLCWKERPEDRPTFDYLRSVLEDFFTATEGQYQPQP
In assay [3] the target is C-terminal Src kinase (CSK) (Homo sapiens (Human), UniProt P41240). The experiment in a line: Kd affinity for C-terminal Src kinase (selectivity). Type of assay: binding.
Sequence of C-terminal Src kinase (CSK) (P41240 whole entry): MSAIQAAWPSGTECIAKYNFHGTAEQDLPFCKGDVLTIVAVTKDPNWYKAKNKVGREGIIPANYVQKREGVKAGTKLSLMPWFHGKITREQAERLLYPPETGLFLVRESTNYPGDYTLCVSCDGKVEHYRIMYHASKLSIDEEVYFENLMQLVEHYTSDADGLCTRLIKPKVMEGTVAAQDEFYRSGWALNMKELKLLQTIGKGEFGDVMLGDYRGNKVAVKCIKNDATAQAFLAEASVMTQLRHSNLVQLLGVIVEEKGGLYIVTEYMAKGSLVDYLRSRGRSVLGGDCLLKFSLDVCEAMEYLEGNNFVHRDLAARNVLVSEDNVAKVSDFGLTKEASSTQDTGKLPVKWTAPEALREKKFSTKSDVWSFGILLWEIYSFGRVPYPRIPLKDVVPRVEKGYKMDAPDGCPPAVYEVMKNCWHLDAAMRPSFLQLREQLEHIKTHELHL
Assay [4] has as its system P-ERK in A375 cells expressing V600E mutated BRAF. The experiment in a line: HTRF assay for P-ERK determination in A375 cells (BRAF inhibition). Type of assay: cell-based. The following applies: Homo sapiens, A-375, 1 h, read-out: pERK IC50 (nM) A375. The method, then: as §1, §2, §3, §4, §5
Mean of the normalized points are fitted with sigmoidal curve and IC50 determined.

Assay [5] deals with YUMM1.7 tumors, immune cell infiltrate (mCD45, mCD3). Kind of assay: Immuno-phenotyping of YUMM1.7 tumors by flow cytometry and IHC. Type of assay: in vivo, mouse (C57/BL6). The method, then:
FIG. 6 reports the total immune cell (top) and T-cell (bottom) infiltrates in tumors, as quantified through flow cytometry. Total immune cell infiltrate was expressed as percentage of mCD45 positive with respect to the alive cells at day 3 and day 6, and T-cell infiltrate expressed in mCD3 positive cells per mm2.
FIG. 7 reports the immunohistochemistry analysis of the mouse immune cell marker CD45 of tumors treated for 3 days with either Vehicle, Compound Ia at 5 mg/kg (daily), mPD1 at 12.5 mg/kg (single treatment) or a combination thereof.
For the immunohistochemical analysis, female C57/BL6 mice were injected subQ with YUMM1.7 cells. When tumors reached around 250 mm^3 (day 14) mice were treated with either Compound Ia at 1 or 5 mg/kg daily (oral administration), with anti-mouse PD1 at 12.5 mg/kg once (single intraveneous administration) or the combination of Compound Ia and anti-mPD1. Mice were sacrificed and tumors collected upon 3 or five days from the beginning of the treatment and tumors were either digested and utilized for cytofluorimetric analysis of fixed and paraffin embedded.
A general note: Flow cytometry measures light scatter and fluorescence of single cells or particles in a stream.

The test system of assay [6] is YUMM1.7 tumors (BRAF V600E). The experiment in a line: In vivo antitumor activity on YUMM1.7 syngeneic allograft tumors. Set-up: species or system mouse (C57BL/6). The conditions noted are these: combination of Compound Ia (1 or 5 mg/kg PO QD) and mouse anti PD-1 antibody (IV once a week); monitored until day 58.
Procedure: Mice were treated until day 31 and afterwards drug treatments were suspended and mice were monitored for evidences of tumor regrowth.
Mice were treated until day 45 and afterwards drug treatments were suspended and mice were monitored for evidences of tumor regrowth.
In the in vivo studies, female mice 7-9 weeks old (at experiment initiation) of the immunocompetent strain C57BL/6 were utilized. The experiment was performed at the Contract Research Organization (CRO) Covance that sourced mice, performed tumor establishment, drug treatment and tumor monitoring.
For xenograft establishment YUMM1.7 cells were suspended in a media composed of 50% Matrigel and 50% Hank's balanced Salt Solution and injected subcutaneously on the right flanks. When tumor volume reached around 100 mm^3 mice were randomized prior treatment.
Mice were implanted with the cell line YUMM1.7 harboring the BRAF V600E mutation. Upon tumor establishment (100 mm3) mice were randomized and received orally (PO) once per day (QD) either Compound Ia (1 mg/kg or 5 mg/kg), mouse anti PD-1 antibody through IV injection, once a week or the respective combinations of PD-1 and Compound Ia at 1 or 5 mg/kg. […] Upon treatment conclusion mice were monitored until day 58 for signs of tumor relapse.
The test system of assay [7] is P-ERK in A375 BRAF V600E NRAS Q61K cells. Kind of assay: P-ERK levels in first generation BRAFi resistant cell model A375 BRAF V600E NRAS Q61K. It is filed as cell-based.

Results on four molecules are retold here after patent publication US20240197735A1, “METHODS AND COMPOSITIONS COMPRISING A BRAF INHIBITOR AND A PD-1 BINDING ANTAGONIST” (Hoffmann-La Roche Inc., priority 2021, published 2024).

Structures are written as SMILES. Where only a bound is given, the exact number is not on record here.

Sequence of BRAF V600E (P15056 whole entry V600E): as the sequence (P15056 whole entry) above, with V600E counted along it

As to `CCCS(=O)(=O)Nc1ccc(F)c(Oc2ccc3ncn(C)c(=O)c3c2)c1C#N` [AR-25], the Kd – broadly, the constant that tells how readily two partners part at equilibrium – is 0.2 nM at BRAF V600E; 0.1 nM at BRAF; 0.3 nM at CRAF; > 40000 nM in assay [2]; > 40000 nM in assay [3]. In assay [1], the EC50 (commonly the concentration that produces a half-maximal response) is 9.6 nM. For the same molecule, the IC50 (in general, the concentration that gives 50% inhibition) in assay [4] was found to be 1.1 nM.
Turning to `CN(C)S(=O)(=O)Nc1ccc(Cl)c(Nc2ccc3ncn(C)c(=O)c3c2)c1F` [AR-30], the Kd was found to be 504 nM on BRAF V600E; 174 nM on BRAF; 822 nM at CRAF; 10400 nM in assay [2]; 8010 nM in assay [3]. Further, the “Percentage of Maximum paradox inducing effect from dabrafenib” value (shortened to “Percentage”) in assay [1] is recorded as 59%. Moreover, the EC50 in [1] is > 1000 nM. Besides, the IC50 in assay [4] amounted to 406 nM.
`Cn1cnc2ccc(Nc3c(Cl)ccc(NS(=O)(=O)N4CCCC4)c3F)cc2c1=O` [AR-31]: the Kd at BRAF V600E was 119 nM; on BRAF, 45.9 nM; at CRAF, 190 nM; in assay [2], 12000 nM; in [3], 1210 nM. The “Percentage” value in assay [1] is on record as 51.2%. For the same molecule, the EC50 in assay [1] was > 1000 nM. Further, the IC50 in [4] came out at 311 nM.
On to `Cn1cnc2ccc(Oc3c(F)ccc(NS(=O)(=O)N4CC[C@@H](F)C4)c3C#N)cc2c1=O` [Ex. 1, (3R)-N-[2-cyano-4-fluoro-3-(3-methyl-4-oxo-quinazolin-6-yl)oxy-phenyl]-3-fluoro-pyrrolidine-1-sulfonamide], for which, in assay [5] (YUMM1.7 tumors, Compound Ia oral daily), the antitumor response entry is on record as “robust antitumor response”. In addition, the “recruitment of inflammatory infiltrate in tumors” value in assay [5] (flow cytometry and IHC data) is “triggers recruitment of inflammatory infiltrate”. Further, the “number of mice showing disease relapse” value in [6] is “strong impact”. In addition, the “Percentage” value in [1] is on record as 43.65%. Further, the “P-ERK reduction in combination with MEKi cobimetinib” value in [7] (combination with cobimetinib at fixed dose of 10 nM, compared with encorafenib/binimetinib) is recorded as “superior P-ERK reduction”. For the same molecule, the “P-ERK inhibition as single agent” value in assay [7] (single agent, compared with Encorafenib) is “potent P-ERK inhibition”.
